Where “and” joins values, the source holds several entries; their conditions need not be identical. Equal entries are not always repeated.
System: 993429-296-R-J1-PDC complex spheroid growth, percent test/control
Test: Anticancer human tumor 993429-296-R-J1-PDC patient-derived uterine sarcoma cell line growth inhibition [Asc]
Conditions: for viability, T/C: stronger effect = lower value
Method in brief: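 Complex solid-tumor spheroids incorporating human endothelial and mesenchymal stem cells received single agents or combinations over half-log dilution ranges anchored to clinical Cmax.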

[1] = curve of first compound, second compound 0.1 µM
[2] = curve of first compound, second compound 0.316 µM
[3] = curve of first compound, second compound 1 µM
[4] = curve of first compound, second compound 3.16 µM
[5] = curve of first compound, second compound 10 µM
[6] = second compound 0.1 µM, first compound 0.00316 µM
[7] = second compound 0.1 µM, first compound 0.01 µM
[8] = second compound 0.1 µM, first compound 0.0316 µM
[9] = second compound 0.1 µM, first compound 0.1 µM
[10] = second compound 0.316 µM, first compound 0.00316 µM
[11] = second compound 0.316 µM, first compound 0.01 µM
[12] = second compound 0.316 µM, first compound 0.0316 µM
[13] = second compound 0.316 µM, first compound 0.1 µM
[14] = second compound 1 µM, first compound 0.00316 µM
[15] = second compound 1 µM, first compound 0.01 µM
[16] = second compound 1 µM, first compound 0.0316 µM
[17] = second compound 1 µM, first compound 0.1 µM
[18] = second compound 3.16 µM, first compound 0.00316 µM
[19] = second compound 3.16 µM, first compound 0.01 µM
[20] = second compound 3.16 µM, first compound 0.0316 µM
[21] = second compound 3.16 µM, first compound 0.1 µM
[22] = second compound 10 µM, first compound 0.00316 µM
[23] = second compound 10 µM, first compound 0.01 µM
[24] = second compound 10 µM, first compound 0.0316 µM
[25] = second compound 10 µM, first compound 0.1 µM
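Further: spheroids exposed to compounds for seven days.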

With Cn1ncnc1[C@H]1c2n[nH]c(=O)c3cc(F)cc(c23)N[C@@H]1c1ccc(F)cc1 + Cc1c(S(C)(=O)=O)c(-c2cc(F)cc(N3CCN(c4ccc(NS(=O)(=O)c5ccc(NC(CCN6CCC(C(=O)OCCCP(=O)(O)O)CC6)CSc6ccccc6)c(S(=O)(=O)C(F)(F)F)c5)cc4)CC3)c2)c(-c2ccc(Cl)cc2)n1C(C)C the IC50 [1] was 9.83 nM, the IC50 [2] was 4.71 nM and the IC50 [3] was 3.8 nM. It also gave an IC50 [4] of 1.01 nM, an IC50 [5] of 10.1 nM and a viability, T/C (second compound 0.1 µM, first compound 0.000316 µM) of 66.9%. It also gave a viability, T/C (second compound 0.1 µM, first compound 0.001 µM) of 70.1%, a viability, T/C [6] of 64.5% and a viability, T/C [7] of 46.7%. For the same molecule, the viability, T/C [8] was 34.1%, the viability, T/C [9] was 18.5% and the viability, T/C (second compound 0.316 µM, first compound 0.000316 µM) was 62.6%. It also gave a viability, T/C (second compound 0.316 µM, first compound 0.001 µM) of 73.7%, a viability, T/C [10] of 50.3% and a viability, T/C [11] of 37.3%. For the same molecule, the viability, T/C [12] was 33.3%, the viability, T/C [13] was 14.2% and the viability, T/C (second compound 1 µM, first compound 0.000316 µM) was 68.8%. It also gave a viability, T/C (second compound 1 µM, first compound 0.001 µM) of 68.5%, a viability, T/C [14] of 50.1% and a viability, T/C [15] of 35.8%. The viability, T/C [16] was 22.7%, the viability, T/C [17] was 10.6% and the viability, T/C (second compound 3.16 µM, first compound 0.000316 µM) was 52.8%. For the same molecule, the viability, T/C (second compound 3.16 µM, first compound 0.001 µM) was 48.5%, the viability, T/C [18] was 44.3% and the viability, T/C [19] was 28.9%. For the same molecule, the viability, T/C [20] was 9.8%, the viability, T/C [21] was 10.8% and the viability, T/C (second compound 10 µM, first compound 0.000316 µM) was 103%. It also gave a viability, T/C (second compound 10 µM, first compound 0.001 µM) of 81%, a viability, T/C [22] of 93.3% and a viability, T/C [23] of 50.1%. The viability, T/C [24] was 12.4% and the viability, T/C [25] was 9.31%.
In the case of NC1CCC(NC2CC2c2ccccc2)CC1 (configuration not stated), the viability, T/C (compound 0.000316 µM) is reported as 72.9% and 80.7% and 109%, the viability, T/C (compound 0.001 µM) is reported as 70.1% and 86.3% and 87% and the viability, T/C (compound 0.00316 µM) is reported as 85.3% and 78.1% and 85.6%. The viability, T/C (compound 0.01 µM) was 78.4% and 94.6% and 91.1%, the viability, T/C (compound 0.0316 µM) was 68% and 88.5% and 86.8% and the viability, T/C (compound 0.1 µM) was 74.9% and 76.6% and 79.7%. For the same molecule, the IC50 (curve of compound) was > 100 nM.
Cc1nc(N2CCC3(CC2)COC(C)C3N)c(CO)nc1Sc1ccnc(N)c1Cl (configuration not stated) + Cc1c(S(C)(=O)=O)c(-c2cc(F)cc(N3CCN(c4ccc(NS(=O)(=O)c5ccc(NC(CCN6CCC(C(=O)OCCCP(=O)(O)O)CC6)CSc6ccccc6)c(S(=O)(=O)C(F)(F)F)c5)cc4)CC3)c2)c(-c2ccc(Cl)cc2)n1C(C)C was tested, and the IC50 [1] was 80.2 nM, the IC50 [2] was 30.5 nM and the IC50 [3] was 14.6 nM. The IC50 [4] was < 9.49 nM, the IC50 [5] was 98.7 nM and the viability, T/C (second compound 0.1 µM, first compound 0.00949 µM) was 71.1%. It also gave a viability, T/C (second compound 0.1 µM, first compound 0.03 µM) of 64.3%, a viability, T/C (second compound 0.1 µM, first compound 0.0949 µM) of 47.2% and a viability, T/C (second compound 0.1 µM, first compound 0.3 µM) of 29.7%. It also gave a viability, T/C (second compound 0.1 µM, first compound 0.949 µM) of 18.8%, a viability, T/C (second compound 0.1 µM, first compound 3 µM) of 17.1% and a viability, T/C (second compound 0.316 µM, first compound 0.00949 µM) of 60.7%. For the same molecule, the viability, T/C (second compound 0.316 µM, first compound 0.03 µM) was 49.3%, the viability, T/C (second compound 0.316 µM, first compound 0.0949 µM) was 35.7% and the viability, T/C (second compound 0.316 µM, first compound 0.3 µM) was 21.9%. For the same molecule, the viability, T/C (second compound 0.316 µM, first compound 0.949 µM) was 14.1%, the viability, T/C (second compound 0.316 µM, first compound 3 µM) was 14.7% and the viability, T/C (second compound 1 µM, first compound 0.00949 µM) was 52.2%. For the same molecule, the viability, T/C (second compound 1 µM, first compound 0.03 µM) was 46.3%, the viability, T/C (second compound 1 µM, first compound 0.0949 µM) was 27% and the viability, T/C (second compound 1 µM, first compound 0.3 µM) was 14.5%. It also gave a viability, T/C (second compound 1 µM, first compound 0.949 µM) of 14.4%, a viability, T/C (second compound 1 µM, first compound 3 µM) of 10.1% and a viability, T/C (second compound 3.16 µM, first compound 0.00949 µM) of 34.6%. The viability, T/C (second compound 3.16 µM, first compound 0.03 µM) was 29.8%, the viability, T/C (second compound 3.16 µM, first compound 0.0949 µM) was 33.6% and the viability, T/C (second compound 3.16 µM, first compound 0.3 µM) was 13.2%. It also gave a viability, T/C (second compound 3.16 µM, first compound 0.949 µM) of 10.8%, a viability, T/C (second compound 3.16 µM, first compound 3 µM) of 8.71% and a viability, T/C (second compound 10 µM, first compound 0.00949 µM) of 76.7%. For the same molecule, the viability, T/C (second compound 10 µM, first compound 0.03 µM) was 67.5%, the viability, T/C (second compound 10 µM, first compound 0.0949 µM) was 51.1% and the viability, T/C (second compound 10 µM, first compound 0.3 µM) was 29.9%. For the same molecule, the viability, T/C (second compound 10 µM, first compound 0.949 µM) was 14.4% and the viability, T/C (second compound 10 µM, first compound 3 µM) was 13.8%.
In the case of CCN1CCN(Cc2ccc(Nc3ncc(F)c(-c4cc(F)c5nc(C)n(C(C)C)c5c4)n3)nc2)CC1 + Cc1c(S(C)(=O)=O)c(-c2cc(F)cc(N3CCN(c4ccc(NS(=O)(=O)c5ccc(NC(CCN6CCC(C(=O)OCCCP(=O)(O)O)CC6)CSc6ccccc6)c(S(=O)(=O)C(F)(F)F)c5)cc4)CC3)c2)c(-c2ccc(Cl)cc2)n1C(C)C, the IC50 [1] is reported as > 1000 nM, the IC50 [2] is reported as 859 nM and the IC50 [3] is reported as 344 nM. For the same molecule, the IC50 [4] was < 3.16 nM, the IC50 [5] was 463 nM and the viability, T/C [6] was 70.2%. It also gave a viability, T/C [7] of 81.9%, a viability, T/C [8] of 64.3% and a viability, T/C [9] of 60.6%. For the same molecule, the viability, T/C (second compound 0.1 µM, first compound 0.316 µM) was 85%, the viability, T/C (second compound 0.1 µM, first compound 1 µM) was 50.7% and the viability, T/C [10] was 54.2%. The viability, T/C [11] was 55.5%, the viability, T/C [12] was 63.5% and the viability, T/C [13] was 64.7%. It also gave a viability, T/C (second compound 0.316 µM, first compound 0.316 µM) of 64.3%, a viability, T/C (second compound 0.316 µM, first compound 1 µM) of 32.5% and a viability, T/C [14] of 48.1%. It also gave a viability, T/C [15] of 52.4%, a viability, T/C [16] of 49.5% and a viability, T/C [17] of 58.7%. The viability, T/C (second compound 1 µM, first compound 0.316 µM) was 55%, the viability, T/C (second compound 1 µM, first compound 1 µM) was 16.5% and the viability, T/C [18] was 37.3%. For the same molecule, the viability, T/C [19] was 45.3%, the viability, T/C [20] was 46.6% and the viability, T/C [21] was 41.8%. The viability, T/C (second compound 3.16 µM, first compound 0.316 µM) was 38.7%, the viability, T/C (second compound 3.16 µM, first compound 1 µM) was 16.2% and the viability, T/C [22] was 70.5%. For the same molecule, the viability, T/C [23] was 67.4%, the viability, T/C [24] was 71.2% and the viability, T/C [25] was 76.9%. The viability, T/C (second compound 10 µM, first compound 0.316 µM) was 67.4% and the viability, T/C (second compound 10 µM, first compound 1 µM) was 14%.

From PubChem BioAssay AID1963446 (Molecular Pharmacology Branch, DTP, NCI, 2024)
